Measured values taken from patent US20160272969A1, “COMPOSITIONS AND METHODS FOR MODULATING AUTOPHAGIC CELL DEATH” (priority 2013, published 2016).
Where a SMILES comes first, the peptide text is derived from it. [ ]: non-standard residue; d: D form. The star is where a group is joined. Sta = CC(C)C[C@H](N)[C@@H](O)CC(=O)O; Isovaleryl = CC(C)CC(=O)*

Experiments:
[1] = system: alpha-1-antitrypsin (AAT)
MCF-7 cells [2] = assay: Western blot of LC3-II levels, MCF-7 cells; assay type: cell-based, human; conditions: for TPCK-induced accumulation of LC3-II: co-incubation with E64d and pepstatin A together
HT-29 cells [3] = assay: Western blot of LC3-II levels, HT-29 cells; assay type: cell-based, human; conditions: for TPCK-induced accumulation of LC3-II: co-incubation with E64d and pepstatin A together
MCF-7 cells [4] = assay: Cell death by trypan blue staining, MCF-7 cells; assay type: cell-based, human; conditions: for TPCK or tamoxifen-induced cell death on addition of autophagy inhibitor: 50 nM bafilomycin A1, 5 mM 3-Methyladenine or combination of 10 m/ml pepstatin with 10 m/ml E64-d
Protocol: (§1) The human breast cancer MCF-7 cell line was cultured in DMEM (Invitrogen, 41965) supplemented with 10% FBS (Beit Haemek, 04-121-1A), 300 mg/l L-glutamine (Beit Haemek, 03-020-1B), 100 U/ml penicillin, 100 μg/ml streptomycin and 12.5 U/ml nystatin (Beit Haemek, 03-032-1B) and 100 U/ml recombinant human insulin (Beit Haemek, 01-818-1H), at 37° C. in 5% CO2.
(§2) Cells were plated in 24-wells plate or 96-well plates at a concentration of 5·10^4 cells/ml. A day later the cells were treated with different concentrations of tamoxifen or TPCK as indicated below.

MCF-7 cells [5] = assay: Labeling of autophagic vacuoles with monodansylcadaverine (MDC), MCF-7 cells; assay type: cell-based, human; conditions: for MDC uptake in cells treated with TPCK: MCF-7 cells treated with TPCK, 3 MA 5 mM or bafilomycin A1 50 nM, 24 hours
Protocol: as §1, §2
(§3) Following treatment, the cells were incubated with 0.05 mM MDC in PBS at 37° C. for 10 minutes (Biederbick et al., Eur J Cell Biol. 1995 January; 66(1):3-14). Intracellular MDC was measured by fluorescence photometry (excitation wavelength 380 nm, emission filter 525 nm) in a TECAN SPECTRA Fluor Plus microplate reader. The MDC fluorescence intensity was correlated to cell density as measured by XTT reduction assay performed in parallel treated samples. The results are expressed as fluorescence/cell.
(§4) For visualization of MDC-labeled vacuoles, cells were grown on coverslips, incubated with 0.05 mM MDC at 37° C. for 10 minutes. After incubation, cells were washed four times with PBS and immediately analyzed by fluorescence microscopy.

HT-29 cells [6] = assay: Labeling of autophagic vacuoles with monodansylcadaverine (MDC), HT-29 cells; assay type: cell-based, human; conditions: HT-29 cells treated with TPCK for 24 hours
Protocol: HT-29 colorectal adenocarcinoma cells were cultured in RPMI 1640 (Invitrogene, 21875) supplemented with 10% FBS, 300 mg/l L-glutamine, 100 U/ml penicillin, 100 μg/ml streptomycin and 12.5 U/ml nystatin at 37° C. in 5% CO2.
as §2, §3, §4

[7] = system: GFP-LC3 transfected MCF-7 cells; assay: GFP-LC3 imaging of transfected MCF-7 cells; assay type: cell-based, human; conditions: TPCK 50 μM, 24 hours
trypsin = assay: Trypsin activity assay (BAEE cleavage); assay type: biochemical; conditions: substrate BAEE, absorbance at 253 nm
Protocol: (§5) Trypsin activity was determined according to Bergmeyer et. al. (Bergmeyer, H. U., Gawehn, K. and Grassl, M. (1974) in Methods of Enzymatic Analysis (Bergmeyer, H. U. ed.) Volume 1, 2nd ed., 516-517, Academic Press, New York, N.Y.). All assays were set up at a total volume of 1 ml by adding 65 μl trypsin at final amount of 1.625 μg, 0.23 mM Na-benzoyl-L-arginine ethyl ester (BAEE) as substrate in 63 mM sodium phosphate, in the presence or absence of 100 μM or 125 μM AAT with or without different concentration of TPCK. Trypsin activity was measured by the cleavage of the substrate BAEE by measuring absorbance at 253 nm.

AAT = AAT (Homo sapiens, UniProt P01009); assay: AAT inhibition of trypsin activity (BAEE cleavage); assay type: biochemical; conditions: TPCK added to AAT and trypsin; P<0.001 compared with control
Protocol: as §5

MCF-7 cells [8] = assay: Western blot of intracellular AAT level, MCF-7 cells; assay type: cell-based, human; conditions: MCF-7 cell lysates; TPCK 50 μM, tamoxifen 10 μM; 1-3 hr treatment
Protocol: (§6) Normal or treated 10^7 cells were collected, washed twice with ice-cold PBS and resuspended in 0.5 ml ice-cold lysing buffer (50 mM Tris-HCl pH 7.5, 0.1% NP-40, 1 mM DTT, 0.25M sucrose, 2 mM MgCl2). The cells were broken by politron (4 cycles of 7 sec) and the cell debris pelleted by centrifugation in an ultracentrifuge at 120,000×g for 30 min, at 4° C. The supernatant was used immediately or stored at −70° C. Protein content of each sample was determined with BioRad reagent according to Bradford's method using bovine serum albumin (BSA) as standard. Equal amounts of protein samples (40 μg/lane) were subjected to 10% SDS-PAGE before being transferred to polyvinylidene difluoride (PVDF) membranes. The samples were then exposed to the following primary antibodies: goat anti-AAT and goat anti-actin (Santa Cruz Biotechnology, Santa Cruz, Calif.) polyclonal antibody. The secondary antibody was an HRP-conjugated anti-goat IgG (Jackson ImmunoResearch, USA). The membranes were blocked with 5% skin milk/Tris-buffered saline containing 0.1% Tween-20 (TBST) at room temperature for 1 h, after which the samples were incubated overnight at 4° C. with each of the above primary antibodies. The membranes were then washed three times with TBST, followed by 1 h incubation at room temperature with the secondary antibody. […]

HT-29 cells [9] = assay: Western blot of intracellular AAT level, HT-29 cells; assay type: cell-based, human; conditions: HT-29 cell lysates; TPCK 50 μM, tamoxifen 10 μM; 1-3 hr treatment
Protocol: as §6

[10] = target: alpha-1-antitrypsin (AAT) (Homo sapiens, UniProt P01009); assay: Interaction assay between AAT and TRFCK (SDS-PAGE fluorescence, Western blot); assay type: binding
Protocol: 2 μg/μl AAT was incubated in vitro with 50 μM TRFCK in 37° c. for 30 min. After the incubation time the sample was subjected to 10% SDS-PAGE before being transferred to polyvinylidene difluoride (PVDF) membranes. At the end of the transfer the membrane was analyzed under UV lamp to track TRFCK fluorescence. The sample was then exposed to primary antibody anti-AAT. The secondary antibody was an HRP-conjugated anti-goat IgG (Jackson ImmunoResearch, USA) The membrane was then visualized using an ECL+plus Western Blotting Detection System.
AAT was incubated in vitro with 50 μM TRFCK (a fluorescence analog of TPCK, N-tosyl-L-phenylalanine chloromethyl ketone) in 37° C. for 30 min. Following incubation, the sample was applied to SDS-PAGE electrophoresis and transferred to PVDF membrane. Thereafter, the membrane was analyzed under UV lamp to track TRFCK fluorescence (FIG. 2, track 1). In addition, Western blot analysis was performed using the same membrane with an antibody against AAT (FIG. 2, track 2).

Chain of AAT (P01009 25-418): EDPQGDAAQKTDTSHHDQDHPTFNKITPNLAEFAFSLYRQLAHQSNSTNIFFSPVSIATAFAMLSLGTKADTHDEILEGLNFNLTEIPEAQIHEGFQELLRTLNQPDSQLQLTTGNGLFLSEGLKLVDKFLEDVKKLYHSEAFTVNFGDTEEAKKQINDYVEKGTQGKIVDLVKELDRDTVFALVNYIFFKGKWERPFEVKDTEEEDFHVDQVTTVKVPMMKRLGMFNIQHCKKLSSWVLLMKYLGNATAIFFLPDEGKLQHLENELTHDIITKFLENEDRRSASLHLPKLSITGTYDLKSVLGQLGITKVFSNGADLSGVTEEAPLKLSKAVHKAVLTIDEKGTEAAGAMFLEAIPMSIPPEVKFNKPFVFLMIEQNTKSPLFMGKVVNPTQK
Chain of alpha-1-antitrypsin (AAT) (Homo sapiens, UniProt P01009) (P01009 25-418): as above

trypsin
trypsin activity (cleavage of the substrate BAEE, absorbance at 253 nm) [1]: AAT inhibits trypsin activity

CC(C)CC(=O)N[C@H](C(=O)N[C@H](C(=O)N[C@@H](CC(C)C)[C@@H](O)CC(=O)N[C@@H](C)C(=O)N[C@@H](CC(C)C)[C@@H](O)CC(=O)O)C(C)C)C(C)C [pepstatin A] (Isovaleryl-VV[Sta]A[Sta]-OH)
TPCK-induced accumulation of LC3-II (MCF-7 cells [2]): enhanced TPCK-induced accumulation of LC3-II | TPCK-induced accumulation of LC3-II (HT-29 cells [3]): enhanced TPCK-induced accumulation of LC3-II | TPCK or tamoxifen-induced cell death on addition of autophagy inhibitor (MCF-7 cells [4]): reduced TPCK or tamoxifen-induced cell death

N-tosyl-L-phenylalanine chloromethyl ketone [TPCK]
MDC fluorescence intensity, number and size of MDC-labeled vesicles (MCF-7 cells [5]; MCF-7 cells treated with TPCK for 24 hours): dose dependent increase in fluorescence intensity | MDC fluorescence intensity, number and size of MDC-labeled vesicles (HT-29 cells [6]): dose dependent increase in fluorescence intensity | GFP-LC3 label (number of autophagosomes) [7]: accumulation of this label | LC3-II by western blot (MCF-7 cells [2]; TPCK 50 μM, different times): appearance of LC3-II | LC3-II by western blot (HT-29 cells [3]; TPCK 50 μM, different times): appearance of LC3-II | cell death by trypan blue staining (MCF-7 cells [4]): induced cell death | trypsin activity (trypsin): did not inhibit the trypsin activity | AAT inhibition of trypsin activity (AAT): the inhibition by AAT was abolished | AAT level as compared to actin (MCF-7 cells [8]): AAT level decreased | AAT level as compared to actin (HT-29 cells [9]): AAT level decreased

CC/C(=C(\c1ccccc1)c1ccc(OCCN(C)C)cc1)c1ccccc1 [tamoxifen]
competition with TRFCK on binding to AAT [10]: not able to compete with TRFCK on binding to AAT | cell death by trypan blue staining (MCF-7 cells [4]): induced cell death | AAT level as compared to actin (MCF-7 cells [8]): AAT level decreased | AAT level as compared to actin (HT-29 cells [9]): AAT level decreased

Cn1cnc(N)c2ncnc1-2 [3-Methyladenine]
MDC uptake in cells treated with TPCK (MCF-7 cells [5]): suppressed MDC uptake | TPCK or tamoxifen-induced cell death on addition of autophagy inhibitor (MCF-7 cells [4]): reduced TPCK or tamoxifen-induced cell death

CCOC(=O)[C@H]1O[C@@H]1C(=O)N[C@@H](CC(C)C)C(=O)NCCC(C)C [E64d]
TPCK-induced accumulation of LC3-II (MCF-7 cells [2]): enhanced TPCK-induced accumulation of LC3-II | TPCK-induced accumulation of LC3-II (HT-29 cells [3]): enhanced TPCK-induced accumulation of LC3-II | TPCK or tamoxifen-induced cell death on addition of autophagy inhibitor (MCF-7 cells [4]): reduced TPCK or tamoxifen-induced cell death

AAT: plasma-derived protein of the serine proteinase inhibitor family; recombinant AAT added to cells
autophagy induced by TPCK and tamoxifen, assessed by MDC staining (MCF-7 cells [5]; MCF-7 cells, AAT added prior to induction by TPCK (50 μM, 24 h) or tamoxifen (5 μM, 72 h)): reduction in autophagy | cell death induced by TPCK and tamoxifen, determined by trypan blue staining (MCF-7 cells [4]; AAT added prior to induction by TPCK (50 μM, 24 h) or tamoxifen (5 μM, 72 h)): reduction | trypsin activity (trypsin): inhibits trypsin activity

CO/C1=C\C(C)=C\[C@@H](C)[C@@H](O)[C@@H](C)C/C(C)=C/C=C/[C@H](OC)[C@@H]([C@@H](C)[C@@H](O)[C@H](C)[C@@]2(O)C[C@@H](O)[C@H](C)[C@@H](C(C)C)O2)OC1=O [bafilomycin A1]
MDC uptake in cells treated with TPCK (MCF-7 cells [5]): suppressed MDC uptake | TPCK or tamoxifen-induced cell death on addition of autophagy inhibitor (MCF-7 cells [4]): reduced TPCK or tamoxifen-induced cell death
